For two molecules, MIC and EC50 results are on record in ChEMBL document CHEMBL5120782, “Structure and Candidate Biosynthetic Gene Cluster of a Manumycin-Type Metabolite from Salinispora pacifica” (J Nat Prod, 2022).

The structures appear in SMILES notation.

Test [1] in a line: Antibacterial activity against Bacillus oceanisediminis CNY-977 assessed as reduction in microbial growth incubated for 18 hrs by CLSI based method. The format is functional. Conditions: Cytobacillus oceanisediminis.
A further test relates to NCI-H460. Kind of test: Cytotoxicity against human NCI-H460 cells assessed as reduction in cell viability incubated for 48 hrs by MTT assay. The class given is functional, cell-based. Conditions: NCI-H460, 48 h.

Consider `CC(C)=C[C@H](C)C[C@H](C)/C=C(\CO)C(=O)NC1=C[C@](O)(CCC(N)=O)[C@H]2O[C@H]2C1=O`, for which the MIC in test [1] was determined as 50 µM.

As to `CCCC/C=C/C=C/C=C/C=N/NN=O`, in the test on NCI-H460, the EC50 amounted to 5.5 µM.
